Laboratory results reported in BigSolDB 2.1.

O=C(O)CC(S)C(=O)O (stereo not drawn)
solubility (mole fraction)
Details | in acetone | in acetonitrile | in ethanol | in ethyl acetate | in isopropanol | in methanol | in n-butanol
278.15 K | 0.133 | 0.0114 | 0.138 | 0.0454 | 0.1 | 0.117 | 0.0909
283.15 K | 0.142 | 0.0159 | 0.154 | 0.0482 | 0.112 | 0.136 | 0.105
288.15 K | 0.149 | 0.0212 | 0.169 | 0.0515 | 0.126 | 0.157 | 0.118
293.15 K | 0.159 | 0.0296 | 0.186 | 0.0547 | 0.141 | 0.178 | 0.134
298.15 K | 0.168 | 0.0392 | 0.205 | 0.0595 | 0.156 | 0.203 | 0.153
303.15 K | 0.178 | 0.0513 | 0.224 | 0.0634 | 0.174 | 0.228 | 0.172
308.15 K | 0.19 | 0.0656 | 0.244 | 0.068 | 0.192 | 0.256 | 0.192
313.15 K | 0.202 | 0.0853 | 0.265 | 0.0732 | 0.212 | 0.285 | 0.213
318.15 K | 0.213 | 0.108 | 0.287 | 0.0787 | 0.233 | 0.314 | 0.236
323.15 K | 0.226 | 0.135 | 0.31 | 0.0849 | 0.256 | 0.345 | 0.261
328.15 K | 0.24 | 0.168 | 0.335 | 0.0915 | 0.28 | 0.379 | 0.286
333.15 K | – | 0.206 | 0.361 | 0.0991 | 0.305 | 0.412 | 0.313
